Results from patent US11505558B1, “Antiviral heterocyclic compounds” (Enanta Pharmaceuticals, Inc., priority 2019, dated 2022).

Test system: genotype A, "Long" strain RSV
Test: RSV-A assay (CPE, ATPlite readout in Hep-2 cells)
Type: cell-based
Conditions: human respiratory syncytial virus, HEp-2, Hep-2 cells, genotype A "Long" strain RSV, MOI 0.1; read-out: Human RSV-A (“Long” strain) EC50
Procedure, shortened: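 Hep-2 cells (8,000/well) received 2-fold serial compound dilutions in duplicate and RSV Long strain at MOI 0.1. After 5 days' incubation, cell health was read as ATP by ATPlite luminescence, with virus-only and uninfected controls defining max and minimum CPE; EC50 reported.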

Row | Structure (SMILES) | EC50 [nM]
1 | C[C@]1(C(N)=O)COc2c1cc([C@@](O)(CNC(=O)c1cc(-c3ccccn3)c3ncccc3c1)C(F)(F)F)nc2-c1ccc(F)cc1 [Example 353] | < 200
2 | C[C@]1(C(N)=O)COc2c1cc([C@@](O)(CNC(=O)c1cc(-c3ncccn3)c3ncccc3c1)C(F)(F)F)nc2-c1ccc(F)cc1 [Example 354] | > 200
3 | C[C@]1(C(N)=O)COc2c1cc([C@@](O)(CNC(=O)c1cc(OCCN)c3ncccc3c1)C(F)(F)F)nc2-c1ccc(F)cc1 [Example 356] | > 200
4 | CC(=O)NCCOc1cc(C(=O)NC[C@](O)(c2cc3c(c(-c4ccc(F)cc4)n2)OC[C@]3(C)C(N)=O)C(F)(F)F)cc2cccnc12 [Example 357] | > 200
5 | Cc1cnc2c(OCC(N)=O)cc(C(=O)NC[C@](O)(c3cc4c(c(-c5ccc(F)c(Cl)c5)n3)OC[C@]4(C)C(N)=O)C(F)(F)F)cc2c1 [Example 367] | < 200
6 | CCc1cnc2c(OCC(N)=O)cc(C(=O)NC[C@](O)(c3cc4c(c(-c5ccc(F)cc5)n3)OC[C@]4(C)C(N)=O)C(F)(F)F)cc2c1 [Example 368] | < 200
7 | CCc1cnc2c(OCC(N)=O)cc(C(=O)NC[C@](O)(c3cc4c(c(-c5ccc(F)c(Cl)c5)n3)OC[C@]4(C)C(N)=O)C(F)(F)F)cc2c1 [Example 369] | < 200
8 | CC1(NC(=O)COc2cc(C(=O)NC[C@](O)(c3cc4c(c(-c5ccc(F)cc5)n3)OC[C@]4(C)C(N)=O)C(F)(F)F)cc3cccnc23)CC1 [Example 370] | > 200
9 | C[C@]1(C(N)=O)COc2c1cc([C@@](O)(CNC(=O)c1cc(OCC(=O)NC3CC3)c3ncccc3c1)C(F)(F)F)nc2-c1ccc(F)cc1 [Example 376] | > 200
10 | CC(C)(O)CNC(=O)COc1cc(C(=O)NC[C@](O)(c2cc3c(c(-c4ccc(F)cc4)n2)OC[C@]3(C)C(N)=O)C(F)(F)F)cc2cccnc12 [Example 377] | > 200
11 | C[C@]1(C(N)=O)COc2c1cc([C@@](O)(CNC(=O)c1cc(OCC(=O)NC[C@H](O)CO)c3ncccc3c1)C(F)(F)F)nc2-c1ccc(F)cc1 [Example 378] | > 200
12 | C[C@]1(C(N)=O)COc2c1cc([C@@](O)(CNC(=O)c1cc(OC3(C(N)=O)CC3)c3ncccc3c1)C(F)(F)F)nc2-c1ccc(F)cc1 [Example 381] | > 200
13 | C[C@]1(C(N)=O)COc2c1cc([C@@](O)(CNC(=O)c1cc(OCC(N)=O)c3ncccc3c1)C(F)(F)F)nc2-c1ccc(F)c(Cl)c1 [Example 382] | < 200
14 | CNc1cc(C(=O)NC[C@](O)(c2cc3c(c(-c4ccc(F)cc4)n2)OC[C@]3(C)C(N)=O)C(F)(F)F)cc2cccnc12 [Example 385] | < 200
15 | C[C@]1(C(N)=O)COc2c1cc([C@@](O)(CNC(=O)c1cc(Oc3ncco3)c3ncccc3c1)C(F)(F)F)nc2-c1ccc(F)cc1 [Example 389] | < 200
16 | Cc1nc(COc2cc(C(=O)NC[C@](O)(c3cc4c(c(-c5ccc(F)cc5)n3)OC[C@]4(C)C(N)=O)C(F)(F)F)cc3cccnc23)co1 [Example 391] | > 200
17 | C[C@]1(C(N)=O)COc2c1cc([C@@](O)(CNC(=O)c1cc(NC(=O)C3CC3)c3ncccc3c1)C(F)(F)F)nc2-c1ccc(F)cc1 [Example 392] | < 200
18 | C[C@]1(C(N)=O)COc2c1cc([C@@](O)(CNC(=O)c1cc(NS(C)(=O)=O)c3ncccc3c1)C(F)(F)F)nc2-c1ccc(F)cc1 [Example 394] | > 200
19 | C[C@]1(C(N)=O)COc2c1cc([C@@](O)(CNC(=O)c1cc(NS(=O)(=O)C3CC3)c3ncccc3c1)C(F)(F)F)nc2-c1ccc(F)cc1 [Example 395] | > 200
20 | C[C@]1(C(N)=O)COc2c1cc([C@@](O)(CNC(=O)c1cc(NC(=O)C(F)F)c3ncccc3c1)C(F)(F)F)nc2-c1ccc(F)cc1 [Example 396] | < 200
21 | C[C@]1(C(N)=O)COc2c1cc([C@@](O)(CNC(=O)c1cc(NC(=O)[C@H]3CCN3)c3ncccc3c1)C(F)(F)F)nc2-c1ccc(F)cc1 [Example 399] | > 200
22 | C[C@]1(C(N)=O)COc2c1cc([C@@](O)(CNC(=O)c1cc(NC(=O)C3CNC3)c3ncccc3c1)C(F)(F)F)nc2-c1ccc(F)cc1 [Example 401] | > 200
23 | C[C@]1(C(N)=O)COc2c1cc([C@@](O)(CNC(=O)c1cc(NC(=O)c3ncc[nH]3)c3ncccc3c1)C(F)(F)F)nc2-c1ccc(F)cc1 [Example 403] | < 200
24 | C[C@@H](O)COc1ccc2cc(C(=O)NC[C@](O)(c3cc4c(c(-c5ccc(F)cc5)n3)OC[C@]4(C)C(N)=O)C(F)(F)F)cc(OC3CC3)c2n1 [Example 405] | > 200

Further lines, results first:

Row | EC50 [nM] | Structure (SMILES)
25 | > 200 | CC(C)(C)OC(=O)NCCOc1cc(C(=O)NC[C@](O)(c2cc3c(c(-c4ccc(F)cc4)n2)OC[C@]3(C)C(N)=O)C(F)(F)F)cc2cccnc12 [Example 355]
26 | > 200 | C[C@]1(C(N)=O)COc2c1cc([C@@](O)(CNC(=O)c1cc(OCCNS(C)(=O)=O)c3ncccc3c1)C(F)(F)F)nc2-c1ccc(F)cc1 [Example 358]
27 | > 200 | C[C@]1(C(N)=O)COc2c1cc([C@@](O)(CNC(=O)c1cc(OCCNC(N)=O)c3ncccc3c1)C(F)(F)F)nc2-c1ccc(F)cc1 [Example 359]
28 | > 200 | C[C@]1(C(N)=O)COc2c1cc([C@@](O)(CNC(=O)c1cc(OCCO)c3ncccc3c1)C(F)(F)F)nc2-c1ccc(F)cc1 [Example 360]
29 | > 200 | COc1nccc2cc(C(=O)NC[C@](O)(c3cc4c(c(-c5ccc(F)cc5)n3)OC[C@]4(C)C(N)=O)C(F)(F)F)ccc12 [Example 362]
30 | < 200 | C[C@]1(C(N)=O)COc2c1cc([C@@](O)(CNC(=O)c1cc(OC(F)(F)C(N)=O)c3ncccc3c1)C(F)(F)F)nc2-c1ccc(F)cc1 [Example 365]
31 | < 200 | C[C@]1(C(N)=O)COc2c1cc([C@@](O)(CNC(=O)c1cc(OCC(=O)Nc3ccccc3)c3ncccc3c1)C(F)(F)F)nc2-c1ccc(F)cc1 [Example 371]
32 | < 200 | CNC(=O)COc1cc(C(=O)NC[C@](O)(c2cc3c(c(-c4ccc(F)cc4)n2)OC[C@]3(C)C(N)=O)C(F)(F)F)cc2cccnc12 [Example 372]
33 | > 200 | COCCNC(=O)COc1cc(C(=O)NC[C@](O)(c2cc3c(c(-c4ccc(F)cc4)n2)OC[C@]3(C)C(N)=O)C(F)(F)F)cc2cccnc12 [Example 375]
34 | > 200 | C[C@]1(C(N)=O)COc2c1cc([C@@](O)(CNC(=O)c1cc(OCC(=O)NC[C@@H](O)CO)c3ncccc3c1)C(F)(F)F)nc2-c1ccc(F)cc1 [Example 379]
35 | > 200 | CC(Oc1cc(C(=O)NC[C@](O)(c2cc3c(c(-c4ccc(F)cc4)n2)OC[C@]3(C)C(N)=O)C(F)(F)F)cc2cccnc12)C(N)=O (stereo partly shown) [Example 383]
36 | > 200 | C[C@]1(C(N)=O)COc2c1cc([C@@](O)(CNC(=O)c1cc(Oc3ccccn3)c3ncccc3c1)C(F)(F)F)nc2-c1ccc(F)cc1 [Example 386]
37 | > 200 | C[C@]1(C(N)=O)COc2c1cc([C@@](O)(CNC(=O)c1cc(NC(=O)[C@@H]3CCN3)c3ncccc3c1)C(F)(F)F)nc2-c1ccc(F)cc1 [Example 400]
38 | < 200 | Cc1ncc(C(=O)Nc2cc(C(=O)NC[C@](O)(c3cc4c(c(-c5ccc(F)cc5)n3)OC[C@]4(C)C(N)=O)C(F)(F)F)cc3cccnc23)[nH]1 [Example 402]
39 | > 200 | C[C@]1(C(N)=O)COc2c1cc([C@@](O)(CNC(=O)c1cc(NC(=O)c3cnn[nH]3)c3ncccc3c1)C(F)(F)F)nc2-c1ccc(F)cc1 [Example 404]
40 | > 200 | CC(C)(O)c1ccc2cc(C(=O)NC[C@](O)(c3cc4c(c(-c5ccc(F)cc5)n3)OC[C@]4(C)C(N)=O)C(F)(F)F)cc(OC3CC3)c2n1 [Example 407]
